From patent US20180282323A1, “Mesoionic imidazole derivatives as insecticides” (BAYER CROPSCIENCE AKTIENGESELLSCHAFT, priority 2015, published 2018) come the findings set out here.

The nature of series [1]: log P by HPLC on reversed-phase column (EEC directive 79/831 Annex V.A8). It is filed as physicochemical. The note with it: for log p a): HPLC on reversed-phase column; for log p: HPLC on reversed-phase column (footnote a). A digest of the protocol:
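Reversed-phase (C18) HPLC at 43° C, following EEC directive 79/831 Annex V.A8.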

Series [2] deals with Myzus persicae. The experiment in a line: Myzus persicae spray test (Chinese cabbage leaf discs). The class given is in vivo. The conditions noted are these: application rate 500 g/ha, after 6 days. The method, then: Myzus persicae—Spray Test Solvent: 78 parts by weight of acetone • • 1.5 parts by weight of dimethylformamide Emulsifier: alkylaryl polyglycol ether
To produce a suitable active ingredient formulation, 1 part by weight of active ingredient is dissolved with the stated parts by weight of solvent and made up with water containing an emulsifier concentration of 1000 ppm until the desired concentration is attained. To produce further test concentrations, the formulation is diluted with emulsifier-containing water.
Discs of Chinese cabbage leaves (Brassica pekinensis) infested by all stages of the green peach aphid (Myzus persicae) are sprayed with an active ingredient formulation of the desired concentration.
After 6 days, the efficacy in % is determined. 100% means that all the aphids have been killed; 0% means that no aphids have been killed.

Series [3] concerns Myzus persicae. The experiment in a line: Myzus persicae oral test. It is filed as in vivo. The conditions noted are these: application rate 20 ppm, oral uptake through parafilm, after 5 days. A digest of the protocol:
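Oral feeding format: mixed-stage Myzus persicae imbibe acetone/water compound formulation in sugared IPL41 medium through parafilm. Efficacy assessed as percent aphids killed at day 5.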

The structures appear in SMILES notation. Read-outs that look alike come from different tables or passages of the source.

With `Cc1ccc[n+]2c(C(=O)COC(C)(C)C)c([O-])n(Cc3cnc(Cl)s3)c12` [Example I-1-296], the “log p a)” value in series [1] is on record as 2.12. The efficacy came out at 90% with Myzus persicae [2] and 100% with Myzus persicae [3].
The compound `O=C(Cn1cccn1)c1c([O-])n(Cc2ccc(Cl)nc2)c2ccc(F)c[n+]12` [Example I-1-106] gave a log p in series [1] of 1.53. In addition, the efficacy with Myzus persicae [2] and with Myzus persicae [3] was 90% each time.
`O=C(Nc1c(Cl)ccnc1Cl)c1c([O-])n(Cc2cnc(Cl)s2)c2cccc[n+]12` [Example I-1-305]: the “log p a)” value in series [1] stood at 2.14. Further, the efficacy in the series on Myzus persicae [2] is reported as 90%; in the series on Myzus persicae [3] it was 100%.
In series [1], `CCCOCC(=O)c1c([O-])n(Cc2cncnc2)c2cccc[n+]12` [Example I-1-061] registered a log p of 1.08. In addition, the efficacy in the series on Myzus persicae [2] and with Myzus persicae [3] was 100% in each case.
As for `N#Cc1cccc(Cl)c1NC(=O)c1c([O-])n(Cc2cnc(Cl)s2)c2cccc[n+]12` [Example I-1-319], the “log p a)” value in series [1] was 2.43. In addition, the efficacy in the series on Myzus persicae [2] is reported as 90%; in the series with Myzus persicae [3], 100%.
As for `O=C(Nc1ncccc1Cl)c1c([O-])n(Cc2ccc(Cl)nc2)c2cccc[n+]12` [Example I-1-315], the “log p a)” value in series [1] is given as 1.46. Besides, the efficacy with Myzus persicae [2] and in the series with Myzus persicae [3] was 100% each time.
In the case of `O=C(Nc1ccccc1C(F)(F)F)c1c([O-])n(Cc2cnc(Cl)s2)c2cccc[n+]12` [Example I-1-311], the “log p a)” value in series [1] is recorded as 3.22. Besides, the efficacy with Myzus persicae [2] and with Myzus persicae [3] was 100% throughout.
Consider `Cc1ccc[n+]2c(C(=O)NC(C)c3ccc(Cl)cc3)c([O-])n(Cc3cnc(Cl)s3)c12` (stereo not shown) [Example I-1-210], for which, in series [1], the “log p a)” value stood at 3.46. The efficacy in the series on Myzus persicae [2] and in the series on Myzus persicae [3] was 100% throughout.
In the case of `O=C(Nc1ncccc1Cl)c1c([O-])n(Cc2cnc(Cl)s2)c2cccc[n+]12` [Example I-1-301], the “log p a)” value in series [1] is 1.63. For the same compound, the efficacy in the series with Myzus persicae [2] and in the series with Myzus persicae [3] was 100% each time.
Turning to `O=C(Nc1cccnc1Cl)c1c([O-])n(Cc2cnc(Cl)s2)c2cccc[n+]12` [Example I-1-308], in series [1], the “log p a)” value is listed as 2.4. Besides, the efficacy in the series on Myzus persicae [2] is listed as 90%; in the series with Myzus persicae [3], 100%.
`N#Cc1cnn(CC(=O)c2c([O-])n(Cc3cnc(Cl)s3)c3cccc[n+]23)c1` [Example I-1-015] registered a log p in series [1] of 1.68. In addition, the values for the efficacy in the series with Myzus persicae [2] and in the series with Myzus persicae [3] were 90% and 100%, respectively.
Compound `CCC(=O)N(CC)CC(=O)c1c([O-])n(Cc2ccc(Cl)nc2)c2cccc[n+]12` [Example I-1-070] registered a log p in series [1] of 1.64. In addition, the efficacy in the series on Myzus persicae [2] and in the series on Myzus persicae [3] was 100% in each case.
In series [1], `COC(=O)c1c([O-])n(Cc2cnc(Cl)s2)c2cccc(C)[n+]12` [Example I-1-122] returned a log p of 1.32. Besides, the efficacy with Myzus persicae [2] was found to be 90%; in the series on Myzus persicae [3], 100%.
The compound `COCC(=O)c1c([O-])n(C(C)c2ccc(Cl)nc2)c2cccc[n+]12` (stereo not shown) [Example I-1-178] returned a log p in series [1] of 1.35. For the same compound, the efficacy with Myzus persicae [2] came out at 90%; with Myzus persicae [3], 100%.
A word on the chromatographic logP: it is lipophilicity estimated from chromatographic retention. Turning to `CC(=O)c1c([O-])n(Cc2cnc(Cl)s2)c2cccc[n+]12` [Example I-1-043, 3-Acetyl-1-[(2-chloro-1,3-thiazol-5-yl)methyl]-1H-imidazo[1,2-a]pyridin-4-ium-2-olate], the chromatographic logP in series [1] and in series [1] (pH 2.7) was 1.29 in each case. In addition, the efficacy with Myzus persicae [2] was 100%. For the same compound, the pest or weed control at 20 ppm in the series with Myzus persicae [3] (Myzus persicae, 120 h, read-out: efficacy) came out at 100%.
As to `N#Cc1cccc(F)c1NC(=O)c1c([O-])n(Cc2cnc(Cl)s2)c2cccc[n+]12` [Example I-1-307], the “log p a)” value in series [1] came to 2.2. In the series on Myzus persicae [2], this compound showed an efficacy of 90%.
With `Cc1ccccc1NC(=O)c1c([O-])n(Cc2ccc(Cl)nc2)c2cccc[n+]12` [Example I-1-328], the “log p a)” value in series [1] was determined as 2.73. In addition, the efficacy in the series with Myzus persicae [2] was determined as 90%; with Myzus persicae [3], 100%.
Regarding `CCC(CC)OCC(=O)c1c([O-])n(Cc2cnc(Cl)s2)c2c(C)ccc[n+]12` [Example I-1-293], the “log p a)” value in series [1] amounted to 2.76. Besides, the efficacy in the series with Myzus persicae [2] and in the series on Myzus persicae [3] was 100% throughout.
In series [1], `CC(=O)N(C)CC(=O)c1c([O-])n(Cc2cnc(Cl)s2)c2cccc[n+]12` [Example I-1-076] showed a log p of 1.18. Also, the efficacy in the series with Myzus persicae [2] and in the series with Myzus persicae [3] was 100% each time.
`COC(=O)c1c([O-])n(Cc2cncnc2)c2cccc[n+]12` [Example I-1-107]: the log p in series [1] is recorded as 0.42. In addition, the efficacy in the series on Myzus persicae [2] turned out to be 90%; in the series on Myzus persicae [3], 100%.
In turn, `CCOCC(=O)c1c([O-])n(Cc2cncnc2)c2cccc[n+]12` [Example I-1-072] returned a log p in series [1] of 0.59. The efficacy with Myzus persicae [2] and with Myzus persicae [3] was 100% each time.
Take `COC(=O)c1c([O-])n(Cc2cnc(Cl)s2)c2cccc[n+]12` [Example I-1-085, 1-[(2-Chloro-1,3-thiazol-5-yl)methyl]-3-(methoxycarbonyl)-1H-imidazo[1,2-a]pyridin-4-ium-2-olate]: the chromatographic logP in series [1] and in series [1] (pH 2.7) was 1.23 throughout. In the series on Myzus persicae [2], this compound registered an efficacy of 90%.
In series [1], `Cc1cccc2n(Cc3cnc(Cl)s3)c([O-])c(C(=O)CCl)[n+]12` [Example I-1-080] had a log p of 1.81. The efficacy in the series on Myzus persicae [2] came out at 100%.
For `C#Cc1cccnc1NC(=O)c1c([O-])n(Cc2cnc(Cl)s2)c2cccc[n+]12` [Example I-1-303], the “log p a)” value in series [1] is on record as 1.3. The compound also had an efficacy in the series with Myzus persicae [2] of 90%.
For the compound `CSCC(=O)c1c([O-])n(Cc2cncnc2)c2cccc[n+]12` [Example I-1-077], the log p in series [1] came to 0.79. In the series with Myzus persicae [3], this compound registered an efficacy of 100%.
In series [1], `N#Cc1cnn(CC(=O)c2c([O-])n(Cc3cncnc3)c3cccc[n+]23)c1` [Example I-1-065] registered a log p of 0.73. The same compound came in with an efficacy in the series with Myzus persicae [3] of 100%.
Take `COCC(=O)c1c([O-])n(Cc2ccc(Cl)nc2)c2c(F)ccc[n+]12` [Example I-1-205]: the “log p a)” value in series [1] is recorded as 1.44. In addition, the efficacy with Myzus persicae [3] was 100%.
In the case of `O=C(Nc1cc(F)ccc1F)c1c([O-])n(Cc2cnc(Cl)s2)c2cccc[n+]12` [Example I-1-306], in series [1], the “log p a)” value amounted to 3.23. The compound further showed an efficacy in the series on Myzus persicae [3] of 100%.
Take `COC(=O)c1c([O-])n(Cc2cnc(Cl)s2)c2c(C)ccc[n+]12` [Example I-1-206]: the “log p a)” value in series [1] came out at 1.46. The efficacy with Myzus persicae [3] is given as 100%.
With `O=C(NC1CCCC1)c1c([O-])n(Cc2cnc(Cl)s2)c2cccc[n+]12` [Example I-1-138], in series [1], the log p was 2.35. For the same compound, the efficacy in the series on Myzus persicae [3] was 100%.
On to `Cc1ccc[n+]2c(C(=O)NC3CC3)c([O-])n(Cc3ccc(F)nc3)c12` [Example I-1-222], for which, in series [1], the “log p a)” value is 1.58. The compound also had an efficacy in the series with Myzus persicae [3] of 100%.
The like results for `O=C(NC1CC1)c1c([O-])n(Cc2cnc(Cl)c(Cl)c2)c2cccc[n+]12` [Example I-1-201] were, in that order, 2.08 and 100%.
For `N#Cc1cnn(CC(=O)c2c([O-])n(Cc3ccc(Cl)nc3)c3cccc[n+]23)c1` [Example I-1-060], the log p in series [1] was 1.55. In the series with Myzus persicae [3], this compound returned an efficacy of 100%.
Consider `CC(c1ccc(Cl)nc1)n1c([O-])c(C(=O)NC2(C#N)CC2)[n+]2ccccc12` (stereo not shown) [Example I-1-271], for which the “log p a)” value in series [1] was determined as 1.69. Further, in the series with Myzus persicae [3], the efficacy is recorded as 100%.
As to `Cc1ccc2n(Cc3ccc(Cl)nc3)c([O-])c(C(=O)CCl)[n+]2c1` [Example I-1-091], the log p in series [1] turned out to be 1.87. Besides, the efficacy in the series with Myzus persicae [3] turned out to be 100%.
Consider `O=C(Cn1ccnn1)c1c([O-])n(Cc2cnc(Cl)s2)c2cccc[n+]12` [Example I-1-064], for which, in series [1], the log p worked out at 1.18. Also, the efficacy with Myzus persicae [3] was determined as 100%.
As for `O=C(NCC(F)(F)F)c1c([O-])n(Cc2ccc(Cl)nc2)c2cccc[n+]12` [Example I-1-312], the “log p a)” value in series [1] is given as 1.98. This compound also had an efficacy in the series on Myzus persicae [3] of 100%.
For the compound `CCOCC(=O)c1c([O-])n(Cc2cnc(Cl)s2)c2ccc(C)c[n+]12` [Example I-1-175], the log p in series [1] is on record as 1.78. The efficacy in the series on Myzus persicae [3] worked out at 100%.
As for `COc1ccccc1NC(=O)c1c([O-])n(Cc2ccc(Cl)nc2)c2cccc[n+]12` [Example I-1-326], the “log p a)” value in series [1] is recorded as 2.55. Besides, in the series with Myzus persicae [3], the efficacy stood at 100%.
For the compound `Cc1cccc2n(Cc3ccc(Cl)nc3)c([O-])c(C(=O)NC3CC3)[n+]12` [Example I-1-171], the log p in series [1] came out at 1.05. In the series on Myzus persicae [3], this compound came in with an efficacy of 100%.
Consider `Cc1ccc[n+]2c(C(=O)NC3CC3)c([O-])n(Cc3ccc(Cl)nc3)c12` [Example I-1-181], for which the log p in series [1] is 1.75. The same compound gave an efficacy with Myzus persicae [3] of 100%.
Consider `O=C(Nc1ccccc1F)c1c([O-])n(Cc2cnc(Cl)s2)c2cccc[n+]12` [Example I-1-286], for which, in series [1], the “log p a)” value was found to be 2.95. Besides, the efficacy in the series on Myzus persicae [3] is 100%.
